Patent US10328135B2, “Method of obtaining cytolytic T cells by using mutant tumor epitopes” (priority 2010, dated 2019)

Tests used:
Format in all cases: cell-based, human
[1] = system: T2 cells pulsed with 1 μM of MART-126-35; test: In vitro cytotoxicity assay (51Cr release) by polyclonal CTL lines generated with analog peptides; target T2 pulsed with MART-126-35 (M26)
Protocol: (§1) Isolated cells were replicated using 30 ng/ml anti-CD3 antibody (OKT3) and IL-2 at 50 U/ml in the presence of irradiated feeder PBMC and LCL for 2 weeks. IL-2 was replenished every 2-3 days.
(§2) Target cells were labeled with 100 μCi of ^51Cr and co-cultured with effector cells for 4 hours at 37° C. plus 5% CO2. […] Released ^51Cr was measured with a gamma scintillation counter and percent specific lysis was determined by using the formula: percent specific release=(experimental release-spontaneous release)/(maximum release-spontaneous release). […]
(§3) “ND” is not done. T2 is a TAP-deficient cell line that expresses peptide-unbound HLA-A2 molecules unless pulsed extracellularly. […] Numbers represent the percentage specific lysis obtained from each target. T375 is a HLA-A2 positive/MART-1 negative cell line.

[2] = system: T2 cells pulsed with NY-ESO-1157-165; test: In vitro cytotoxicity assay (51Cr release) by polyclonal CTL lines generated with analog peptides; target T2 pulsed with NY-ESO-1157-165 (negative control); settings: target T2 (pulsed with NYESO-1157-165)
Protocol: as §1, §2, §3

[3] = system: Mel 526 (HLA-A2+/MART-1+) melanoma cell line; test: In vitro cytotoxicity assay (51Cr release) by polyclonal CTL lines generated with analog peptides; target Mel 526; settings: target Mel526
Protocol: as §1, §2, §3

[4] = system: A375 (HLA-A2+/NY-ESO-1+) melanoma cell line; test: In vitro cytotoxicity assay (51Cr release) by polyclonal CTL lines generated with analog peptides; target A375
Protocol: as §1, §2, §3

[5] = system: MART-126-35-specific CTL clone M26-H1; test: Saturation mutagenesis APL screen: bead-based cross-presentation by immature dendritic cells, IFN-γ sandwich ELISA; settings: 200 μl bacterial cultures, 88 clones, CTL clone M26-H1, FIG. 2
CD-4+ cells = test: NY-ESO-1 APL cross-presented mini-gene products, IFN-γ ELISA, CD-4+ cells (FIG. 8A)
Protocol: FIG. 8A. Native and superagonist CTL determinants can be distinguished in bead-based cross presentation assay. Oligonucleotides encoding NY-ESO-1157-170 were cloned into and expressed by pQE40 expression vectors. The mini-gene products were isolated and “fed” to immature dendritic cells as described in the Examples. NY-ESO-1157-170-specific CTL clones were used to detect the presence of the cross-presented mini-gene products (NY-ESO-1157-170). Induced IFN-γ expression was determined by standard sandwich ELISA. Synthetic wild-type peptide was used a positive control. […] Results for CD-4+ cells are shown.
FIG. 8A and FIG. 8B show the ability of several NY-ES0-1APL to stimulate CD-4^| fractions (FIG. 8A) and PBMC (FIG. 8B).

[6] = CTL line from Healthy1, E/T 12.5
[7] = CTL line from MelPt-B, E/T 12.5
[8] = CTL line from MelPt-C, E/T 12.5
[9] = CTL line from MelPt-D, E/T 12.5
[10] = CTL line from MelPt-F, E/T 12.5

## MART-126-35L33M (EAAGIGIMTV; UniProt Q16655 26-35, looked up, variant L33M)
[1]; [6]
  Percentage Specific Lysis from polyclonal CTL lines generated with the indicated peptide: 38%
[1]; CTL line from Healthy1, E/T 25
  Percentage Specific Lysis from polyclonal CTL lines generated with the indicated peptide: 49%
[1]; CTL line from Healthy1, E/T 50
  Percentage Specific Lysis from polyclonal CTL lines generated with the indicated peptide: 57%
[1]; [7]
  Percentage Specific Lysis from polyclonal CTL lines generated with the indicated peptide: 41%
[1]; CTL line from MelPt-B, E/T 25
  Percentage Specific Lysis from polyclonal CTL lines generated with the indicated peptide: 52%
[1]; CTL line from MelPt-B, E/T 50
  Percentage Specific Lysis from polyclonal CTL lines generated with the indicated peptide: 63%
[1]; [8]
  Percentage Specific Lysis from polyclonal CTL lines generated with the indicated peptide: 76%
[1]; CTL line from MelPt-C, E/T 25
  Percentage Specific Lysis from polyclonal CTL lines generated with the indicated peptide: 84%
[1]; CTL line from MelPt-C, E/T 50
  Percentage Specific Lysis from polyclonal CTL lines generated with the indicated peptide: 91%
[1]; [9]
  Percentage Specific Lysis from polyclonal CTL lines generated with the indicated peptide: 75%
[1]; CTL line from MelPt-D, E/T 25
  Percentage Specific Lysis from polyclonal CTL lines generated with the indicated peptide: 84%
[1]; CTL line from MelPt-D, E/T 50
  Percentage Specific Lysis from polyclonal CTL lines generated with the indicated peptide: 90%
[1]; [10]
  Percentage Specific Lysis from polyclonal CTL lines generated with the indicated peptide: 65%
[1]; CTL line from MelPt-F, E/T 25
  Percentage Specific Lysis from polyclonal CTL lines generated with the indicated peptide: 72%
[1]; CTL line from MelPt-F, E/T 50
  Percentage Specific Lysis from polyclonal CTL lines generated with the indicated peptide: 70%
[2]; [6]
  Percentage Specific Lysis from polyclonal CTL lines generated with the indicated peptide: 5%
[2]; CTL line from Healthy1, E/T 25
  Percentage Specific Lysis from polyclonal CTL lines generated with the indicated peptide: 6%
[2]; CTL line from Healthy1, E/T 50
  Percentage Specific Lysis from polyclonal CTL lines generated with the indicated peptide: 2%
[2]; [7]
  Percentage Specific Lysis from polyclonal CTL lines generated with the indicated peptide: 4%
[2]; CTL line from MelPt-B, E/T 25
  Percentage Specific Lysis from polyclonal CTL lines generated with the indicated peptide: 2%
[2]; CTL line from MelPt-B, E/T 50
  Percentage Specific Lysis from polyclonal CTL lines generated with the indicated peptide: 2%
[2]; [8]
  Percentage Specific Lysis from polyclonal CTL lines generated with the indicated peptide: 11%
[2]; CTL line from MelPt-C, E/T 25
  Percentage Specific Lysis from polyclonal CTL lines generated with the indicated peptide: 12%
[2]; CTL line from MelPt-C, E/T 50
  Percentage Specific Lysis from polyclonal CTL lines generated with the indicated peptide: 9%
[2]; [9]
  Percentage Specific Lysis from polyclonal CTL lines generated with the indicated peptide: 8%
[2]; CTL line from MelPt-D, E/T 25
  Percentage Specific Lysis from polyclonal CTL lines generated with the indicated peptide: 11%
[2]; CTL line from MelPt-D, E/T 50
  Percentage Specific Lysis from polyclonal CTL lines generated with the indicated peptide: 14%
[2]; [10]
  Percentage Specific Lysis from polyclonal CTL lines generated with the indicated peptide: 22%
[2]; CTL line from MelPt-F, E/T 25
  Percentage Specific Lysis from polyclonal CTL lines generated with the indicated peptide: 21%
[2]; CTL line from MelPt-F, E/T 50
  Percentage Specific Lysis from polyclonal CTL lines generated with the indicated peptide: 23%
[3]; [6]
  Percentage Specific Lysis from polyclonal CTL lines generated with the indicated peptide: 44%
[3]; CTL line from Healthy1, E/T 25
  Percentage Specific Lysis from polyclonal CTL lines generated with the indicated peptide: 57%
[3]; CTL line from Healthy1, E/T 50
  Percentage Specific Lysis from polyclonal CTL lines generated with the indicated peptide: 65%
[3]; [7]
  Percentage Specific Lysis from polyclonal CTL lines generated with the indicated peptide: 58%
[3]; CTL line from MelPt-B, E/T 25
  Percentage Specific Lysis from polyclonal CTL lines generated with the indicated peptide: 70%
[3]; CTL line from MelPt-B, E/T 50
  Percentage Specific Lysis from polyclonal CTL lines generated with the indicated peptide: 80%
[3]; [8]
  Percentage Specific Lysis from polyclonal CTL lines generated with the indicated peptide: 45%
[3]; CTL line from MelPt-C, E/T 25
  Percentage Specific Lysis from polyclonal CTL lines generated with the indicated peptide: 52%
[3]; CTL line from MelPt-C, E/T 50
  Percentage Specific Lysis from polyclonal CTL lines generated with the indicated peptide: 58%
[3]; [9]
  Percentage Specific Lysis from polyclonal CTL lines generated with the indicated peptide: 45%
[3]; CTL line from MelPt-D, E/T 25
  Percentage Specific Lysis from polyclonal CTL lines generated with the indicated peptide: 54%
[3]; CTL line from MelPt-D, E/T 50
  Percentage Specific Lysis from polyclonal CTL lines generated with the indicated peptide: 57%
[3]; [10]
  Percentage Specific Lysis from polyclonal CTL lines generated with the indicated peptide: 38%
[3]; CTL line from MelPt-F, E/T 25
  Percentage Specific Lysis from polyclonal CTL lines generated with the indicated peptide: 42%
[3]; CTL line from MelPt-F, E/T 50
  Percentage Specific Lysis from polyclonal CTL lines generated with the indicated peptide: 44%
[4]; [6]
  Percentage Specific Lysis from polyclonal CTL lines generated with the indicated peptide: 10%
[4]; CTL line from Healthy1, E/T 25
  Percentage Specific Lysis from polyclonal CTL lines generated with the indicated peptide: 13%
[4]; CTL line from Healthy1, E/T 50
  Percentage Specific Lysis from polyclonal CTL lines generated with the indicated peptide: 13%
[4]; [7]
  Percentage Specific Lysis from polyclonal CTL lines generated with the indicated peptide: 9%
[4]; CTL line from MelPt-B, E/T 25
  Percentage Specific Lysis from polyclonal CTL lines generated with the indicated peptide: 12%
[4]; CTL line from MelPt-B, E/T 50
  Percentage Specific Lysis from polyclonal CTL lines generated with the indicated peptide: 13%
[4]; [8]
  Percentage Specific Lysis from polyclonal CTL lines generated with the indicated peptide: 5%
[4]; CTL line from MelPt-C, E/T 25
  Percentage Specific Lysis from polyclonal CTL lines generated with the indicated peptide: 2%
[4]; CTL line from MelPt-C, E/T 50
  Percentage Specific Lysis from polyclonal CTL lines generated with the indicated peptide: 0%
[4]; [9]
  Percentage Specific Lysis from polyclonal CTL lines generated with the indicated peptide: 6%
[4]; CTL line from MelPt-D, E/T 25
  Percentage Specific Lysis from polyclonal CTL lines generated with the indicated peptide: 4%
[4]; CTL line from MelPt-D, E/T 50
  Percentage Specific Lysis from polyclonal CTL lines generated with the indicated peptide: 2%
[4]; [10]
  Percentage Specific Lysis from polyclonal CTL lines generated with the indicated peptide: 5%
[4]; CTL line from MelPt-F, E/T 25
  Percentage Specific Lysis from polyclonal CTL lines generated with the indicated peptide: 3%
[4]; CTL line from MelPt-F, E/T 50
  Percentage Specific Lysis from polyclonal CTL lines generated with the indicated peptide: 2%

## A27M: APL clones of MART-126-35 containing methionine residues at P2; previously described superagonist
[5]
  IFN-γ expression in P2 library screen of MART-126-35: greater IFN-γ expression than wild type MART-126-35

## I162Q: NY-ESO-1157-170 APL I162Q (SLLMWQTQCFLPVF)
CD-4+ cells
  Stimulation of CD-4+ cells: most effective

## Q164S: NY-ESO-1157-170 APL Q164S (SLLMWITSCFLPVF)
CD-4+ cells
  Stimulation of CD-4+ cells: most effective

## F170W: NY-ESO-1157-170 APL F170W (SLLMWITQCFLPVW)
CD-4+ cells
  Stimulation of CD-4+ cells: most effective
